According to patent US10294202B2, “Pyrrolidinones as herbicides” (FMC Corporation, priority 2013, dated 2019):

Legend:
barnyardgrass [1] = assay: Test A pre-/postemergence herbicide test; format: in vivo, Echinochloa crus-galli
How it was run: (§1)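 Seeds in loam–sand blend received preemergence directed soil spray; separately, plants 2–10 cm at one- to two-leaf stage received postemergence spray, both with test chemicals in non-phytotoxic solvent with surfactant. After ~10 days in greenhouse, injury rated visually against untreated controls, 0 (no effect) to 100 (complete control).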

kochia = assay: Test A pre-/postemergence herbicide test; format: in vivo, Kochia scoparia
How it was run: as §1

ragweed = assay: Test A pre-/postemergence herbicide test; format: in vivo, Ambrosia elatior
How it was run: as §1

ryegrass, Italian = assay: Test A pre-/postemergence herbicide test; format: in vivo, Lolium multiflorum
How it was run: as §1

giant foxtail = assay: Test A pre-/postemergence herbicide test; format: in vivo, Setaria faberii
How it was run: as §1

pigweed = assay: Test A pre-/postemergence herbicide test; format: in vivo, Amaranthus retroflexus
How it was run: as §1

wheat = assay: Test A pre-/postemergence herbicide test; format: in vivo, Triticum aestivum; conditions: Postemergence; for Plant response rating, Wheat: 125 g ai/ha
How it was run: as §1

corn = assay: Test A pre-/postemergence herbicide test; format: in vivo, Zea mays; conditions: Postemergence
How it was run: as §1

blackgrass = assay: Test A postemergence herbicide test; format: in vivo, Alopecurus myosuroides
How it was run: (§2)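 Potted in loam soil/sand blend; postemergence application at 1–2 leaf stage (2–10 cm). Greenhouse ~10 d. Visual injury vs untreated, 0–100 scale; 100 = complete control.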

galium = assay: Test A postemergence herbicide test; format: in vivo, Galium aparine; conditions: for Plant response rating, Galium: 125 g ai/ha
How it was run: as §2

rice [2] = assay: Test B flooded paddy test; format: in vivo, Oryza sativa; conditions: 1000 g ai/ha, Flood; scale of 0 to 100 where 0 is no effect and 100 is complete control
How it was run: (§3)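 First, plants reach the 2-leaf stage; next, pots are flooded to 3 cm and compound is delivered into the water; finally, after 13 to 15 greenhouse days at constant depth, injury is graded visually from 0 to 100 against controls.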

sedge, umbrella [3] = assay: Test B flooded paddy test; format: in vivo, Cyperus difformis; conditions: 1000 g ai/ha, Flood; scale of 0 to 100 where 0 is no effect and 100 is complete control
How it was run: as §3

ducksalad [4] = assay: Test B flooded paddy test; format: in vivo, Heteranthera limosa; conditions: 1000 g ai/ha, Flood; scale of 0 to 100 where 0 is no effect and 100 is complete control
How it was run: as §3

barnyardgrass [5] = assay: Test B flooded paddy test; format: in vivo, Echinochloa crus-galli; conditions: 1000 g ai/ha, Flood; scale of 0 to 100 where 0 is no effect and 100 is complete control
How it was run: as §3

rice [6] = assay: Test C flooded paddy test; format: in vivo, Oryza sativa; conditions: Flood
How it was run: (§4)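 Visual injury scored against controls after 13 to 15 days in the greenhouse, using 0 (no effect) to 100 (complete control). Test compounds went straight into paddy water held 3 cm above the soil surface on 2-leaf-stage plants, with that flood depth maintained for the whole test.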

sedge, umbrella [7] = assay: Test C flooded paddy test; format: in vivo, Cyperus difformis; conditions: Flood
How it was run: as §4

ducksalad [8] = assay: Test C flooded paddy test; format: in vivo, Heteranthera limosa; conditions: Flood
How it was run: as §4

barnyardgrass [9] = assay: Test C flooded paddy test; format: in vivo, Echinochloa crus-galli; conditions: Flood
How it was run: as §4

[10] = 125 g ai/ha, visual rating, 0 to 100 scale, 0 no effect, 100 complete control, approximately 10 days, preemergence
[11] = Postemergence, 125 g ai/ha, 0 to 100 scale, 0 is no effect, 100 is complete control
[12] = preemergence, 500 g ai/ha, 0 to 100 scale, 0 is no effect and 100 is complete control
[13] = 0 to 100 scale, 0 is no effect, 100 is complete control
[14] = 125 g ai/ha, 0 to 100 scale, 0 is no effect, 100 is complete control
[15] = 125 g ai/ha, scale of 0 to 100 where 0 is no effect and 100 is complete control, 13 to 15 days
[16] = 250 g ai/ha, scale of 0 to 100 where 0 is no effect and 100 is complete control, 13 to 15 days
[17] = Postemergence, 125 g ai/ha, visual rating on 0 to 100 scale (0 no effect, 100 complete control), approx. 10 days
[18] = Postemergence, 500 g ai/ha, 0 to 100 scale (0 no effect, 100 complete control)
[19] = Preemergence, 125 g ai/ha, 0 to 100 scale where 0 is no effect and 100 is complete control
[20] = Preemergence, 500 g ai/ha, visual rating on 0 to 100 scale (0 no effect, 100 complete control)
[21] = visual rating on 0 to 100 scale (0 no effect, 100 complete control), approx. 10 days
[22] = 125 g ai/ha, visual rating on 0 to 100 scale (0 no effect, 100 complete control), approx. 10 days
[23] = 500 g ai/ha, 0 to 100 scale (0 no effect, 100 complete control)

CC(C)(C)c1cccc(C2CNC(=O)C2C(=O)Nc2cccc(F)c2F)c1 (racemic) [Compound 200]
95: Plant response rating, Ducksalad (ducksalad [4])
0: Plant response rating, Kochia (kochia; [10]) | Plant response rating, Kochia (kochia; [11]) | Kochia plant response rating (0 to 100 scale, 0 is no effect, 100 is complete control) (kochia; Postemergence, 500 g ai/ha) | Plant response rating, Kochia (kochia; [12]) | Plant response rating, Ragweed (ragweed; [10]) | Plant response rating, Ragweed (ragweed; [11]) | Ragweed plant response rating (0 to 100 scale, 0 is no effect, 100 is complete control) (ragweed; Postemergence, 500 g ai/ha) | Plant response rating, Ragweed (ragweed; [12]) | Plant response rating, Ryegrass, Italian (ryegrass, Italian; [10]) | Plant response rating, Ryegrass, Italian (ryegrass, Italian; [11]) | Ryegrass, Italian plant response rating (0 to 100 scale, 0 is no effect, 100 is complete control) (ryegrass, Italian; Postemergence, 500 g ai/ha) | Plant response rating, Ryegrass, Italian (ryegrass, Italian; [12]) | Plant response rating, Pigweed (pigweed; [10]) | Plant response rating, Pigweed (pigweed; [11]) | Pigweed plant response rating (0 to 100 scale, 0 is no effect, 100 is complete control) (pigweed; Postemergence, 500 g ai/ha) | Plant response rating, Pigweed (pigweed; [12]) | Plant response rating, Wheat (wheat; [13]) | Plant response rating, Corn (corn; [14]) | Plant response rating, Blackgrass (blackgrass; [14]) | Blackgrass plant response rating (0 to 100 scale, 0 is no effect, 100 is complete control) (blackgrass; 500 g ai/ha) | Plant response rating, Galium (galium; [13]) | Galium plant response rating (0 to 100 scale, 0 is no effect, 100 is complete control) (galium; 500 g ai/ha) | Plant response rating, Sedge, Umbrella (sedge, umbrella [3]) | Plant response rating, Rice (rice [6]; [15]) | Plant response rating, Rice (rice [6]; [16]) | Plant response rating, Rice (rice [6]; 500 g ai/ha, scale 0 to 100) | Plant response rating, Rice (rice [6]; 1000 g ai/ha, scale 0 to 100) | Plant response rating, Sedge, Umbrella (sedge, umbrella [7]; [15]) | Plant response rating, Sedge, Umbrella (sedge, umbrella [7]; [16]) | Plant response rating, Sedge, Umbrella (sedge, umbrella [7]; 500 g ai/ha, scale 0 to 100) | Plant response rating, Sedge, Umbrella (sedge, umbrella [7]; 1000 g ai/ha, scale 0 to 100)
70: Plant response rating, Barnyardgrass (barnyardgrass [1]; [11]) | Plant response rating, Ducksalad (ducksalad [8]; [15]) | Plant response rating, Ducksalad (ducksalad [8]; [16])
100: Plant response rating, Ducksalad (ducksalad [8]; 500 g ai/ha, scale 0 to 100) | Plant response rating, Ducksalad (ducksalad [8]; 1000 g ai/ha, scale 0 to 100)
90: Barnyardgrass plant response rating (0 to 100 scale, 0 is no effect, 100 is complete control) (barnyardgrass [1]; Postemergence, 500 g ai/ha) | Plant response rating, Barnyardgrass (barnyardgrass [1]; [12])
40: Foxtail, Giant plant response rating (0 to 100 scale, 0 is no effect, 100 is complete control) (giant foxtail; Postemergence, 500 g ai/ha) | Plant response rating, Barnyardgrass (barnyardgrass [9]; 500 g ai/ha, scale 0 to 100)
85: Plant response rating, Barnyardgrass (barnyardgrass [5])
25: Plant response rating, Barnyardgrass (barnyardgrass [9]; [16])
20: Plant response rating, Foxtail, Giant (giant foxtail; [11]) | Wheat plant response rating (0 to 100 scale, 0 is no effect, 100 is complete control) (wheat; 500 g ai/ha) | Corn plant response rating (0 to 100 scale, 0 is no effect, 100 is complete control) (corn; 500 g ai/ha)
15: Plant response rating, Rice (rice [2]) | Plant response rating, Barnyardgrass (barnyardgrass [9]; [15])
55: Plant response rating, Barnyardgrass (barnyardgrass [9]; 1000 g ai/ha, scale 0 to 100)
30: Plant response rating, Foxtail, Giant (giant foxtail; [10])
60: Plant response rating, Barnyardgrass (barnyardgrass [1]; [10])
80: Plant response rating, Foxtail, Giant (giant foxtail; [12])

O=C1NCC(c2cccc(C(F)(F)F)c2)C1C(=O)Nc1cccc(Cl)c1F (centres unmarked) [Compound 344]
60: Plant response rating, Barnyardgrass (barnyardgrass [1]; [17]) | Plant response rating, Ducksalad (ducksalad [8]; [16])
55: Plant response rating, Barnyardgrass (barnyardgrass [9]; 1000 g ai/ha, scale 0 to 100)
35: Plant response rating, Barnyardgrass (barnyardgrass [9]; [16])
90: Plant response rating, Barnyardgrass (barnyardgrass [1]; [18]) | Barnyardgrass plant response rating (barnyardgrass [1]; [20]) | Plant response rating, Foxtail, Giant (giant foxtail; [18]) | Foxtail, Giant plant response rating (giant foxtail; [20]) | Plant response rating, Ducksalad (ducksalad [4])
85: Plant response rating, Barnyardgrass (barnyardgrass [5]) | Plant response rating, Ducksalad (ducksalad [8]; 1000 g ai/ha, scale 0 to 100)
0: Plant response rating, Kochia (kochia; [17]) | Plant response rating, Kochia (kochia; [19]) | Kochia plant response rating (kochia; [20]) | Plant response rating, Ragweed (ragweed; [17]) | Plant response rating, Ragweed (ragweed; [19]) | Ragweed plant response rating (ragweed; [20]) | Plant response rating, Ryegrass, Italian (ryegrass, Italian; [17]) | Plant response rating, Ryegrass, Italian (ryegrass, Italian; [19]) | Plant response rating, Pigweed (pigweed; [17]) | Plant response rating, Pigweed (pigweed; [19]) | Pigweed plant response rating (pigweed; [20]) | Plant response rating, Wheat (wheat; [21]) | Plant response rating, Corn (corn; [22]) | Plant response rating, Corn (corn; [23]) | Plant response rating, Blackgrass (blackgrass; [22]) | Plant response rating, Blackgrass (blackgrass; [23]) | Plant response rating, Galium (galium; [21]) | Plant response rating, Sedge, Umbrella (sedge, umbrella [3]) | Plant response rating, Rice (rice [6]; [15]) | Plant response rating, Rice (rice [6]; [16]) | Plant response rating, Rice (rice [6]; 500 g ai/ha, scale 0 to 100) | Plant response rating, Rice (rice [6]; 1000 g ai/ha, scale 0 to 100) | Plant response rating, Sedge, Umbrella (sedge, umbrella [7]; [15]) | Plant response rating, Sedge, Umbrella (sedge, umbrella [7]; [16]) | Plant response rating, Sedge, Umbrella (sedge, umbrella [7]; 500 g ai/ha, scale 0 to 100) | Plant response rating, Sedge, Umbrella (sedge, umbrella [7]; 1000 g ai/ha, scale 0 to 100) | Plant response rating, Barnyardgrass (barnyardgrass [9]; [15])
10: Plant response rating, Rice (rice [2])
30: Ryegrass, Italian plant response rating (ryegrass, Italian; [20])
80: Plant response rating, Foxtail, Giant (giant foxtail; [17]) | Plant response rating, Foxtail, Giant (giant foxtail; [19])
50: Plant response rating, Barnyardgrass (barnyardgrass [1]; [19]) | Plant response rating, Ducksalad (ducksalad [8]; [15])
65: Plant response rating, Ducksalad (ducksalad [8]; 500 g ai/ha, scale 0 to 100)
40: Plant response rating, Barnyardgrass (barnyardgrass [9]; 500 g ai/ha, scale 0 to 100)
